Data published in patent publication US20060052350A1, “Crystalline forms of 1,24(S)-dihydroxy vitamin D2” (priority 2004, published 2006).

Test: Stability of the crystalline forms exposed to 100% relative humidity (resulting form identified by powder XRD)
Assay type: physicochemical
Conditions: 100% relative humidity for about 1 week at room temperature
Experimental: The crystal forms were identified using an Applied Research Laboratory (SCINTAG) powder X-ray diffractometer model X'TRA equipped with a solid state detector. The crystal samples were analyzed using a round aluminum sample holder with zero background and copper radiation of 1.5418 Å.

Maintenance of crystal structure (no transformation to another crystalline form) on humidity exposure: maintain their crystal structure
SMILES: C=C1/C(=C\C=C2/CCCC3(C)C2CCC3[C@H](C)/C=C/[C@@](C)(O)C(C)C)C[C@@H](O)C[C@@H]1O (stereo partly drawn) [Form B, 1,24(S)-dihydroxy vitamin D2]
